Pest or weed control data for 16 molecules are collected here from patent publication US20130269064A1, “INSECTICIDAL COMPOUNDS” (SYNGENTA PARTICIPATIONS AG, priority 2010, published 2013).

What all share (assay type): in vivo
The subject of test [1] is Plutella xylostella. Kind of test: Plutella xylostella (diamond back moth) artificial diet test. The following applies: 144 h, 200 ppm (concentration in well 18 ppm), L2 larvae, 6 days, larval mortality and growth regulation. Here is the method:
Plutella xylostella (Diamond Back Moth): A 24-well microtiter plate (MTP) with artificial diet was treated with test solutions at an application rate of 200 ppm (concentration in well 18 ppm) by pipetting. After drying, the MTP's were infested with L2 larvae (7-12 per well). After an incubation period of 6 days, samples were checked for larval mortality and growth regulation.

The subject of test [2] is Heliothis virescens. Kind of test: Heliothis virescens (tobacco budworm) egg/artificial diet test. The following applies: 96 h, 200 ppm (concentration in well 18 ppm), eggs 0-24 h old on artificial diet, 4 days, egg mortality, larval mortality, growth regulation. The method, then: Heliothis virescens (Tobacco Budworm): Eggs (0-24 h old) were placed in 24-well microtiter plate on artificial diet and treated with test solutions at an application rate of 200 ppm (concentration in well 18 ppm) by pipetting. After an incubation period of 4 days, samples were checked for egg mortality, larval mortality and growth regulation.

In test [3] the test system is Spodoptera littoralis. Kind of test: Spodoptera littoralis (Egyptian cotton leafworm) cotton leaf disc test. The conditions noted are these: foliar, 72 h, 200 ppm sprayed on cotton leaf discs, 5 L1 larvae, mortality, feeding behaviour, growth regulation 3 DAT. An excerpt:
Spodoptera littoralis (Egyptian Cotton Leafworm): Cotton leaf discs were placed on agar in a 24-well microtiter plate and sprayed with test solutions at an application rate of 200 ppm. After drying, the leaf discs were infested with 5 L1 larvae. The samples were checked for mortality, feeding behaviour, and growth regulation 3 days after treatment (DAT).

The test system of test [4] is Diabrotica balteata. Kind of test: Diabrotica balteata (corn root worm) artificial diet test. The conditions noted are these: 120 h, 200 ppm (concentration in well 18 ppm), L2 larvae, 5 days, larval mortality and growth regulation. Here is the method:
Diabrotica balteata (Corn Root Worm): A 24-well microtiter plate (MTP) with artificial diet was treated with test solutions at an application rate of 200 ppm (concentration in well 18 ppm) by pipetting. After drying, the MTP's were infested with larvae (L2) (6-10 per well). After an incubation period of 5 days, samples were checked for larval mortality, and growth regulation.

Consider `Cn1nc(C(F)(F)C(F)(F)F)c(C(F)(F)F)c1NC(=O)c1cccc(NC(=O)c2ccccc2F)c1F` [Compound B1], for which the pest or weed control at 200 ppm in test [1], in test [2], in test [3] and in test [4] was not below 80% throughout.

As to `Cn1nc(C(F)(F)C(F)(F)F)c(C(F)(F)F)c1NC(=O)c1cccc(NC(=O)c2ccccc2Cl)c1F` [Compound B3], the pest or weed control at 200 ppm in test [1], in test [2], in test [3] and in test [4] was not below 80% throughout.

In the case of `Cc1ccc(C(=O)Nc2cccc(C(=O)Nc3c(C(F)(F)F)c(C(F)(F)C(F)(F)F)nn3C)c2F)cc1` [Compound B6], the pest or weed control at 200 ppm in test [1], in test [2], in test [3] and in test [4] was not below 80% each time.

As for `Cn1nc(C(F)(F)C(F)(F)F)c(C(F)(F)F)c1NC(=O)c1cccc(NC(=O)c2cccc(F)c2F)c1F` [Compound B21], the pest or weed control at 200 ppm in test [1], in test [2], in test [3] and in test [4] was not below 80% throughout.

With `Cn1nc(C(F)(F)C(F)(F)F)c(C(F)(F)F)c1NC(=O)c1cccc(NC(=O)c2ccc(F)cc2F)c1F` [Compound B22], the pest or weed control at 200 ppm in test [1], in test [2], in test [3] and in test [4] was not below 80% in each case.

Regarding `Cn1nc(C(F)(F)C(F)(F)F)c(C(F)(F)F)c1NC(=O)c1cccc(NC(=O)c2ccc(F)c(C(F)(F)F)c2)c1` [Compound D12], the pest or weed control at 200 ppm in test [2] and in test [4] was not below 80% throughout.

The molecule `Cn1nc(C(F)(F)C(F)(F)F)c(C(F)(F)F)c1NC(=O)c1cccc(NC(=O)c2ccccc2OC(F)(F)F)c1` [Compound D14] registered a pest or weed control at 200 ppm in test [4] not below 80%.

Consider `Cn1nc(C(F)(F)C(F)(F)F)c(C(F)(F)F)c1NC(=O)c1cccc(NC(=O)c2ccccc2C(F)(F)F)c1` [Compound D18], for which the pest or weed control at 200 ppm in test [2], in test [3] and in test [4] was not below 80% throughout.

On to `Cn1nc(C(F)(F)C(F)(F)F)c(C(F)(F)F)c1NC(=O)c1cccc(NC(=O)c2cc(C(F)(F)F)ccc2F)c1` [Compound D23], for which the pest or weed control at 200 ppm in test [2], in test [3] and in test [4] was not below 80% in each case.

Consider `Cc1ccccc1C(=O)Nc1cc(C(=O)Nc2c(C(F)(F)F)c(C(F)(F)C(F)(F)F)nn2C)ccc1Cl` [Compound E2], for which, in test [3], the pest or weed control at 200 ppm was not below 80%.

Consider `Cn1nc(C(F)(F)C(F)(F)F)c(C(F)(F)F)c1NC(=O)c1ccc(Cl)c(NC(=O)c2ccc([N+](=O)[O-])cc2)c1` [Compound E5], for which the pest or weed control at 200 ppm in test [1], in test [2] and in test [4] was not below 80% throughout.

Turning to `Cn1nc(C(F)(F)C(F)(F)F)c(C(F)(F)F)c1NC(=O)c1ccc(Cl)c(NC(=O)c2ccc(F)c(C(F)(F)F)c2)c1` [Compound E12], the pest or weed control at 200 ppm in test [4] was not below 80%.

With `Cn1nc(C(F)(F)C(F)(F)F)c(C(F)(F)F)c1NC(=O)c1ccc(Cl)c(NC(=O)c2ccc(C(F)(F)F)cc2)c1` [Compound E13], the pest or weed control at 200 ppm in test [2] and in test [4] was not below 80% each time.

`Cn1nc(C(F)(F)C(F)(F)F)c(C(F)(F)F)c1NC(=O)c1ccc(Cl)c(NC(=O)c2ccccc2C(F)(F)F)c1` [Compound E18] yielded a pest or weed control at 200 ppm in test [4] not below 80%.

As for `Cn1nc(C(F)(F)C(F)(F)F)c(C(F)(F)F)c1NC(=O)c1ccc(Cl)c(NC(=O)c2cccc(F)c2F)c1` [Compound E21], the pest or weed control at 200 ppm in test [2] and in test [4] was not below 80% throughout.

`Cc1cc(C#N)ccc1C(=O)Nc1nc(C(=O)Nc2c(C(F)(F)F)c(C(F)(F)C(F)(F)F)nn2C)ccc1C#N` [Compound F1] showed a pest or weed control at 200 ppm in test [3] not below 80%.
